The results in this text go back to patent US9096608B2, “Pharmaceutically active pyrazolo-triazine derivatives” (LEAD DISCOVERY CENTER GMBH, priority 2012, dated 2015).

Common to all, as to assay type: biochemical
Assay [1] has as its target T1, CDK2/CycA (Homo sapiens, UniProt P24941).
T1 construct: purchased Proqinase
The assay can be described thus: CDK2 Enzymatic Activity Assay (Lance Kinase Activity Assay, FRET). Conditions: Table 5B; symbols per IC50 ranges of b615. In a few lines:
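Compounds serially diluted 1:3 over 8 steps, run with CDK2/CycA, ULight-MBP substrate and ATP in HEPES pH 7.5 buffer for 1 h at room temperature. LANCE TR-FRET detection with Eu-anti-phospho-MBP after EDTA stop; IC50 from sigmoidal dose-response curves.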

The target of assay [2] is T2, CDK7/CycH/Mat1 (Homo sapiens, UniProt P50613).
T2 construct: purchased Carna
T2 sequence (P50613 whole entry): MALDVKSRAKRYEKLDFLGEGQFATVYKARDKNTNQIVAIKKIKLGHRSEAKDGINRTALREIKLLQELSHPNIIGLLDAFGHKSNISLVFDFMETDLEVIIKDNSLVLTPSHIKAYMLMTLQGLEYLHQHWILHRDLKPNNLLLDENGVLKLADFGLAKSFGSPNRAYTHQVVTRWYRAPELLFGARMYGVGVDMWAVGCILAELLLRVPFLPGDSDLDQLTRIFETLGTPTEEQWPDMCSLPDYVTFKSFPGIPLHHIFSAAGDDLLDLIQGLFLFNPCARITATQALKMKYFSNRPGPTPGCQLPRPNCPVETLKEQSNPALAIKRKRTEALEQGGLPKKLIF
T2 sequence (P51946 whole entry partner): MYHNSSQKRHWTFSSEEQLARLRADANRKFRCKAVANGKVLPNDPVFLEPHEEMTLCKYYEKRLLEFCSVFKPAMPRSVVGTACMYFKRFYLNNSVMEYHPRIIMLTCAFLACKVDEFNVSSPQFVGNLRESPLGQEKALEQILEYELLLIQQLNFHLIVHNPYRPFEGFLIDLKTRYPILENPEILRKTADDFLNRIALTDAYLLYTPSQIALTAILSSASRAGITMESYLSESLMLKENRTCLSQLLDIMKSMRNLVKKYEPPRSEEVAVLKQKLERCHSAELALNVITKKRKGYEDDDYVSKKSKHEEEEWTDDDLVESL
T2 sequence (P51948 whole entry partner): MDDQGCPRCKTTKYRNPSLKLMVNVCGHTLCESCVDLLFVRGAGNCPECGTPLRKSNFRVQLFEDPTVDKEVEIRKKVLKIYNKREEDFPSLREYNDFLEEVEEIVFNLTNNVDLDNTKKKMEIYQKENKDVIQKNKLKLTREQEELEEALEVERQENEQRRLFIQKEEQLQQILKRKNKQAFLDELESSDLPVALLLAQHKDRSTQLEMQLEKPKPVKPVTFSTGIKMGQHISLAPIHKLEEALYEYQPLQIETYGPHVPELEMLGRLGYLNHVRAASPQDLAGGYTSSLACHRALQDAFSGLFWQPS
As to the kind of experiment: CDK7 Enzymatic Activity Assay (Lance Kinase Activity Assay, FRET). Conditions: Table 5A; 25 μM ATP final; read-out: CDK7: IC50 [mM] for CDK7 inhibition (the above defined ranges apply). In a few lines:
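TR-FRET (LANCE) kinase assay with ULight-MBP peptide substrate and Eu-labelled anti-phospho antibody; compounds in 8-point 1:3 series in HEPES 50 mM pH 7.5, MgCl2 10 mM, EGTA 1 mM, DTT 2 mM, 0.01% Tween-20.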

Assay [3] deals with T3, CDK9/Cyclin T1 (Homo sapiens, UniProt P50750).
T3 construct: purchased Invitrogen
T3 sequence (P50750 whole entry): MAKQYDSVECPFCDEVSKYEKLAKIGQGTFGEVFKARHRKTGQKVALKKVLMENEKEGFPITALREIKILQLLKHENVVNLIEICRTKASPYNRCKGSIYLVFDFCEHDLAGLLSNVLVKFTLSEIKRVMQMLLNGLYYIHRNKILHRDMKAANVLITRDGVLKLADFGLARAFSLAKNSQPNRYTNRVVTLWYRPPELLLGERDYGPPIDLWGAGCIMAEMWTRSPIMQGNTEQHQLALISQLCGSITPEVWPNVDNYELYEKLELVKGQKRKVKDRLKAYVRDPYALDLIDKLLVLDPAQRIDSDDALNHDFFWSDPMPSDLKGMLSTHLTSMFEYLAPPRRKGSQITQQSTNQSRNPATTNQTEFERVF
T3 sequence (O60563 whole entry partner): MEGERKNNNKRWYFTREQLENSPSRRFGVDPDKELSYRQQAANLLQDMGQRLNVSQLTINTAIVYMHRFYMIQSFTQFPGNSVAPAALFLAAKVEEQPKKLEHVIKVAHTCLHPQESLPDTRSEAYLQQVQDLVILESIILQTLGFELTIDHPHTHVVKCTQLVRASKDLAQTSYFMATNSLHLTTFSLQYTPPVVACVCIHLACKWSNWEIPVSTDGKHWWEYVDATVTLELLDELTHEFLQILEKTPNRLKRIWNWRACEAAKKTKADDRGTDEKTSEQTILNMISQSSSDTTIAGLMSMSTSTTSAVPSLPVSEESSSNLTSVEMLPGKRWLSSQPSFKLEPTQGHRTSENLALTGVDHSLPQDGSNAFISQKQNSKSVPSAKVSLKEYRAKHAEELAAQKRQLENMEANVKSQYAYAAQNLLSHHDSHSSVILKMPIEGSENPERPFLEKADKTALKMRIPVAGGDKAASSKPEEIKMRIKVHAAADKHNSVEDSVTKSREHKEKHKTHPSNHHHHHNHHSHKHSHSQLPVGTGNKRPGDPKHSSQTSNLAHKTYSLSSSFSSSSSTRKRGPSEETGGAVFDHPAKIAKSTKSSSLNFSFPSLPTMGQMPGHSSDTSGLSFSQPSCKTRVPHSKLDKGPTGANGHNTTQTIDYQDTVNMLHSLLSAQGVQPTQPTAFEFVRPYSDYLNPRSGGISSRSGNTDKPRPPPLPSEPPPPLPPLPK
As to the kind of experiment: CDK9 Enzymatic Activity Assay (Lance Kinase Activity Assay, FRET). Particulars: Table 5B; symbols per IC50 ranges of b615. In a few lines: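 TR-FRET detection of ULight-MBP substrate phosphorylation by CDK9/cyclin T1 using a Eu-anti-phospho-MBP antibody, in 50 mM HEPES pH 7.5, 10 mM MgCl2, 1 mM EGTA, 2 mM DTT, 0.01% Tween-20. Kinase reaction 1 h at room temperature, then EDTA detection buffer for 1 h before reading.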

Usually IC50 stands for the midpoint of a concentration-inhibition curve. Take `COc1cccc([C@H](C)Nc2nc(CN(C)CCN3CCCC3)nc3c(C(C)C)cnn23)c1` [(XXIX-6), (S)-8-isopropyl-N-(1-(3-methoxyphenyl)ethyl)-2-((methyl(2-(pyrrolidin-1-yl)ethyl)amino)methyl)pyrazolo[1,5-a][1,3,5]triazin-4-amine]: in assay [1], the “CDK2 IC50 range class” value is recorded as “+++ (IC50>2500 nM)”. Besides, the IC50 in assay [2] was more than 0.0001 mM. Also, the “CDK9: Selectivity of CDK7 inhibition over CDK9 inhibition [fold]” value in assay [3] was “+++ (IC50>2500 nM)”.

With `COc1cccc([C@H](C)Nc2nc(CNCCN3CCOCC3)nc3c(C(C)C)cnn23)c1` [(XXIX-7), (S)-8-isopropyl-N-(1-(3-methoxyphenyl)ethyl)-2-(((2-morpholinoethyl)amino)methyl)pyrazolo[1,5-a][1,3,5]triazin-4-amine], in assay [1], the “CDK2 IC50 range class” value was “+++ (IC50>2500 nM)”. For the same compound, in assay [2], the IC50 was more than 0.0001 mM. Also, in assay [3], the “CDK9: Selectivity of CDK7 inhibition over CDK9 inhibition [fold]” value was “+++ (IC50>2500 nM)”.

`COc1cccc([C@H](C)Nc2nc(CN(C)CCCN3CCCCC3)nc3c(C(C)C)cnn23)c1` [(XXIX-8), (S)-8-isopropyl-N-(1-(3-methoxyphenyl)ethyl)-2-((methyl(3-(piperidin-1-yl)propyl)amino)methyl)pyrazolo[1,5-a][1,3,5]triazin-4-amine]: the “CDK2 IC50 range class” value in assay [1] is listed as “+++ (IC50>2500 nM)”. The IC50 in assay [2] was more than 0.0001 mM. The “CDK9: Selectivity of CDK7 inhibition over CDK9 inhibition [fold]” value in assay [3] is reported as “+++ (IC50>2500 nM)”.

As to `COc1cccc([C@H](C)Nc2nc(CN3CC(N4CCC(F)(F)C4)C3)nc3c(C(C)C)cnn23)c1` [(XXIX-9), (S)-2-((3-(3,3-difluoropyrrolidin-1-yl)azetidin-1-yl)methyl)-8-isopropyl-N-(1-(3-methoxyphenyl)ethyl)pyrazolo[1,5-a][1,3,5]triazin-4-amine], the “CDK2 IC50 range class” value in assay [1] is recorded as “+++ (IC50>2500 nM)”. The IC50 in assay [2] is more than 0.0001 mM. In addition, the “CDK9: Selectivity of CDK7 inhibition over CDK9 inhibition [fold]” value in assay [3] was “+++ (IC50>2500 nM)”.

For the compound `COc1cccc([C@H](C)Nc2nc(CN3CC(N4CCCC4=O)C3)nc3c(C(C)C)cnn23)c1` [(XXIX-10), (S)-1-(1-((8-isopropyl-4-((1-(3-methoxyphenyl)ethyl)amino)pyrazolo[1,5-a][1,3,5]triazin-2-yl)methyl)azetidin-3-yl)pyrrolidin-2-one], the “CDK2 IC50 range class” value in assay [1] is given as “+++ (IC50>2500 nM)”. The IC50 in assay [2] is more than 0.0001 mM. Besides, the “CDK9: Selectivity of CDK7 inhibition over CDK9 inhibition [fold]” value in assay [3] is “+++ (IC50>2500 nM)”.

For `COCCN1CCN(Cc2nc(N[C@@H](C)c3cccc(OC)c3)n3ncc(C(C)C)c3n2)CC1` [(XXIX-11), (S)-8-isopropyl-2-((4-(2-methoxyethyl)piperazin-1-yl)methyl)-N-(1-(3-methoxyphenyl)ethyl)pyrazolo[1,5-a][1,3,5]triazin-4-amine], the “CDK2 IC50 range class” value in assay [1] is listed as “+++ (IC50>2500 nM)”. Also, the IC50 in assay [2] was more than 0.0001 mM. In assay [3], the “CDK9: Selectivity of CDK7 inhibition over CDK9 inhibition [fold]” value is recorded as “+++ (IC50>2500 nM)”.

On to `COc1cccc([C@H](C)Nc2nc(C(=O)N3CC4(CNC4)C3)nc3c(C(C)C)cnn23)c1` [(XXVI-1), (S)-(8-isopropyl-4-((1-(3-methoxyphenyl)ethyl)amino)pyrazolo[1,5-a][1,3,5]triazin-2-yl)(2,6-diazaspiro[3.3]heptan-2-yl)methanone], for which, in assay [1], the “CDK2 IC50 range class” value was “+++ (IC50>2500 nM)”. In addition, in assay [2], the IC50 was more than 0.0001 mM. In addition, the “CDK9: Selectivity of CDK7 inhibition over CDK9 inhibition [fold]” value in assay [3] is reported as “+++ (IC50>2500 nM)”.

For `COc1cccc([C@H](C)Nc2nc(C(=O)N(C)CCN3CCOCC3)nc3c(C(C)C)cnn23)c1` [(XXVI-2), (S)-8-isopropyl-4-((1-(3-methoxyphenyl)ethyl)amino)-N-methyl-N-(2-morpholinoethyl)pyrazolo[1,5-a][1,3,5]triazine-2-carboxamide], in assay [1], the “CDK2 IC50 range class” value was “+++ (IC50>2500 nM)”. Also, the IC50 in assay [2] was more than 0.0001 mM. Further, the “CDK9: Selectivity of CDK7 inhibition over CDK9 inhibition [fold]” value in assay [3] is listed as “+++ (IC50>2500 nM)”.

For `COc1cccc([C@H](C)Nc2nc(C(=O)N(C)CCN3CCCC3)nc3c(C(C)C)cnn23)c1` [(XXVI-3), (S)-8-isopropyl-4-((1-(3-methoxyphenyl)ethyl)amino)-N-methyl-N-(2-(pyrrolidin-1-yl)ethyl)pyrazolo[1,5-a][1,3,5]triazine-2-carboxamide], in assay [1], the “CDK2 IC50 range class” value is listed as “+++ (IC50>2500 nM)”. In addition, the IC50 in assay [2] is more than 0.0001 mM. Moreover, the “CDK9: Selectivity of CDK7 inhibition over CDK9 inhibition [fold]” value in assay [3] is on record as “+++ (IC50>2500 nM)”.

On to `COc1cccc([C@H](C)Nc2nc(C(=O)N3CCNCC3)nc3c(C(C)C)cnn23)c1` [(XXVI-4), (S)-(8-isopropyl-4-((1-(3-methoxyphenyl)ethyl)amino)pyrazolo[1,5-a][1,3,5]triazin-2-yl)(piperazin-1-yl)methanone], for which, in assay [1], the “CDK2 IC50 range class” value is recorded as “+++ (IC50>2500 nM)”. In assay [2], the IC50 is more than 0.0001 mM. The “CDK9: Selectivity of CDK7 inhibition over CDK9 inhibition [fold]” value in assay [3] is “+++ (IC50>2500 nM)”.

As for `COc1cccc([C@H](C)Nc2nc(C(=O)NCCCN)nc3c(C(C)C)cnn23)c1` [(XXVI-5), (S)-N-(3-aminopropyl)-8-isopropyl-4-((1-(3-methoxyphenyl)ethyl)amino)pyrazolo[1,5-a][1,3,5]triazine-2-carboxamide], the “CDK2 IC50 range class” value in assay [1] is on record as “+++ (IC50>2500 nM)”. For the same compound, in assay [2], the IC50 was more than 0.0001 mM. For the same compound, the “CDK9: Selectivity of CDK7 inhibition over CDK9 inhibition [fold]” value in assay [3] is recorded as “+++ (IC50>2500 nM)”.
